Results on three compounds are retold here after patent publication US20100185419A1, “ALGORITHM FOR DESIGNING IRREVERSIBLE INHIBITORS” (Avila Therapeutics, Inc., priority 2008, published 2010).

Experiment [1] deals with HCV NS3/4A 1b protease (Hepatitis C virus genotype 1b, UniProt P26662). The experiment is described as follows: biochemical.
Method: An HCV Protease FRET Assay for HCV NS3/4A 1b Enzyme (IC50_APP) was used. The following protocol was used to generate “apparent” IC50 (IC50_APP) values. […] Protease reactions were immediately started after enzyme addition with the addition of 45 μL of the FRET substrate and monitored for 60-90 minutes at λex485/λem520 in a Synergy4 plate reader from BioTek (Winooski, Vt.).
In experiment [2] the target is T1, HCV NS3/4A wild type (Hepatitis C virus genotype 1b, UniProt P26662).
T1 construct: The single-chain proteolytic domain (NS4A21-32-GSGS-NS33-631) was cloned into pET-14b; His tag; made in house; host or cells: Escherichia coli BL21
T1 sequence (P26662 1013-1207, looked up, natural form): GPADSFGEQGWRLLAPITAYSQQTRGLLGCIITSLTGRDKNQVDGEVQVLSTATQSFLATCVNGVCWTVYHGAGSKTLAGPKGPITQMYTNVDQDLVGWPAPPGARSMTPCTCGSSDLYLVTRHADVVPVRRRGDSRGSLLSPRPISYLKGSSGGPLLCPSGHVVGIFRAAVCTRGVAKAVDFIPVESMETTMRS
Briefly: Mass spectral analysis of intact HCV NS3/4A wild type protease. The format is binding. The settings on record: 10-fold excess of compound, 1 hr to 3 hrs, MALDI-TOF. The procedure:
Mass spectrometric analysis of HCV in the presence of Compound 5 was performed using the following protocol: HCV NS3/4A wild type (wt) was incubated for 1 hr at a 10× fold access of Compound 5 to protein. 2 μl aliquots of the samples were diluted with 10 μl of 0.1% TFA prior to micro C4 ZipTipping directly onto the MALDI target using Sinapinic acid as the desorption matrix (10 mg/ml in 0.1% TFA:Acetonitrile 50:50). The instrument was set in linear mode using a pulsed extraction setting of 24,500 and apomyoglobin as the standard to calibrate the instrument.
100 pmols of HCV wild type (Bioenza CA) was incubated with compound for 1 hr and 3 hrs at 10-fold access of Compound 6 to protein. 1 μl aliquots of the samples (total volume of 4.24 ul) were diluted with 10 μl of 0.1% TFA prior to micro C4 ZipTipping directly onto the MALDI target using Sinapinic acid as the desorption matrix (10 mg/ml in 0.1% TFA:Acetonitrile 50:50). Analyses were performed on a Shimadzu Biotech Axima TOF^2 (Shimadzu Instruments) matrix-assisted-laser desorption/ionization Time-of-Flight (MALDI-TOF) mass spectrometer.

Experiment [3] addresses T2, Flt3 (Homo sapiens, UniProt P36888).
T2 sequence (P36888 27-993): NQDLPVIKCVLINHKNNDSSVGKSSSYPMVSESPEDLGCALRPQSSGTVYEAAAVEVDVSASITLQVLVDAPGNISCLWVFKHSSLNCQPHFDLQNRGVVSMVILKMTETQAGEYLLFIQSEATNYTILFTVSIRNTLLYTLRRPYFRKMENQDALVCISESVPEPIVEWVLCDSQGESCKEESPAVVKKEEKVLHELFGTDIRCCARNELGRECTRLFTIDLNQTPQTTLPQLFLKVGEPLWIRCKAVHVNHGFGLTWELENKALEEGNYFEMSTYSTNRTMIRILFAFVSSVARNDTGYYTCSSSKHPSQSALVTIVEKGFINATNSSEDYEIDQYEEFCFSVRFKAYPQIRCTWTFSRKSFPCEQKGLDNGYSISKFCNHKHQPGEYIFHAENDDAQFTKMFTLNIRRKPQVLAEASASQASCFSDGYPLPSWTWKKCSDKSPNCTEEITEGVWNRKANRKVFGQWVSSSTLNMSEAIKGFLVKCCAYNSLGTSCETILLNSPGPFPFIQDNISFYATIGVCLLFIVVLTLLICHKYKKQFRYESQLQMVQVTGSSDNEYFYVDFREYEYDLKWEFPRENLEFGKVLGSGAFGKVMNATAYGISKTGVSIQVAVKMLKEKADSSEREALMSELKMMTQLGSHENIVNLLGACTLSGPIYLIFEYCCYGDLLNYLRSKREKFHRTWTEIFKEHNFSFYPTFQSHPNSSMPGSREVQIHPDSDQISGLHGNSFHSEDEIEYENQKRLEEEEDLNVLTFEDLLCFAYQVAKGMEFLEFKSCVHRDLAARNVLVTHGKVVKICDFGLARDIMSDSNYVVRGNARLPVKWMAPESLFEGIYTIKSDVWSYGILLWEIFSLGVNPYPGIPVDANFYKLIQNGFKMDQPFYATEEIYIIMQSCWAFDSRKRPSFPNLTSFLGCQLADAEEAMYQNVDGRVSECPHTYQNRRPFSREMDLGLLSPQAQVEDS
The experiment is described as follows: Flt3 mass spectral analysis of tryptic digest. The class given is binding. The settings on record: 3 hrs at 100× excess, tryptic digest MALDI. How it is done: Flt3 was incubated with Compound 4 for 3 hrs at 100× excess prior to tryptic digestion. Iodoacetamide was used as the alkylating agent after compound incubation. For tryptic digests a 5 ul aliquot (7 pmols) was diluted with 10 ul of 0.1% TFA prior to micro C18 Zip Tipping directly onto the MALDI target using alpha cyano-4-hydroxy cinnamic acid as the matrix (5 mg/ml in 0.1% TFA:Acetonitrile 50:50).
The mass spec instrument was set in Reflectron mode with a pulsed extraction setting of 1800. Calibration was done using the Laser Biolabs Pep Mix standard (1046.54, 1296.69, 1672.92, 2093.09, 2465.20). For CID/PSD analysis the peptide was selected using cursors to set ion gate timing and fragmentation occurred at a laser power about 20% higher and He was used as the collision gas for CID. Calibration for fragments was done using the P14R fragmentation calibration for the Curved field Reflectron.

Experiment [4] concerns the target T2, Flt3. Briefly: FLT3 biochemical assay (continuous-read kinase assay). On the set-up: purchased Invitrogen PV3182. The settings on record: 500 μM ATP; read-out: IC50 for inhibition of FLT3 phosphorylation.
Experiment [5] concerns the target T3, Btk (Homo sapiens, UniProt Q06187).
T3 construct: purchased Invitrogen
Briefly: Omnia assay for potency against Btk. Conditions: biochemical assay; read-out: IC50 Btk kinase. How it is done:
The protocol below describes continuous-read kinase assays to measure inherent potency of compounds against active forms of Btk enzyme. The mechanics of the assay platform are best described by the vendor (Invitrogen, Carlsbad, Calif.) on the world wide web at invitrogen.com/site/us/en/home/Products-and-Services/Applications/Drug-Discovery/Target-and-Lead-Identification-and-Validation/KinaseBiology/KB-Misc/Biochemical-Assays/Omnia-Kinase-Assays.html. Briefly, 10× stocks of 5 nM Btk from Invitrogen, 1.13×40 μM ATP (AS001A) and 10 μM (ATP KMapp ˜[…]) Tyr-Sox conjugated peptide substrates (KCZ 1001) were prepared in 1× kinase reaction buffer consisting of 20 mM Tris, pH 7.5, 5 mM MgCl2, 1 mM EGTA, 5 mM β-glycerophosphate, 5% glycerol (10× stock, KBOO2A) and 0.2 mM DTT (DS001A).

Experiment [6] deals with Btk signaling in Ramos cells. Briefly: Btk Ramos cellular assay (PLCγ2 phosphorylation). The format is cell-based. The settings on record: Homo sapiens, 1 μM compound. The procedure:
Compounds CNX-85 was assayed in Ramos human Burkitt lymphoma cells. Ramos cells were grown in suspension in T225 flasks, spun down, resuspended in 50 mls serum-free media and incubated for 1 hour. Compound was added to Ramos cells in serum free media to a final concentration of 1, 0.1, 0.01, or 0.001 μM. Ramos cells were incubated with compound for 1 hour, washed again and resuspended in 100 ul serum-free media. Cells were then stimulated with 1 μg of goat F(ab′)2 Anti-Human IgM and incubated on ice for 10 minutes to activate B cell receptor signaling pathways. After 10 minutes, the cells were washed once with PBS and then lysed on ice with Invitrogen Cell Extraction buffer. 16 μg total protein from lysates were loaded on gel and blots were probed for phosphorylation of the Btk substrate PLCγ2.

Sequence of HCV NS3/4A 1b protease (P26662 1027-1208): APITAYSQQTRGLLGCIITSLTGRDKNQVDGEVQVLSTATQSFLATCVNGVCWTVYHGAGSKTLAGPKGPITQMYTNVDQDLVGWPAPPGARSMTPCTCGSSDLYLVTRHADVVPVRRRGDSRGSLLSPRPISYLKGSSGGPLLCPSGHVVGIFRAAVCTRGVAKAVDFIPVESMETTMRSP
Sequence of HCV NS3/4A 1b protease (P26662 1658-1711): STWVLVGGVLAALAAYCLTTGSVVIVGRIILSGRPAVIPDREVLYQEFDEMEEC
T3 sequence (Q06187 whole entry): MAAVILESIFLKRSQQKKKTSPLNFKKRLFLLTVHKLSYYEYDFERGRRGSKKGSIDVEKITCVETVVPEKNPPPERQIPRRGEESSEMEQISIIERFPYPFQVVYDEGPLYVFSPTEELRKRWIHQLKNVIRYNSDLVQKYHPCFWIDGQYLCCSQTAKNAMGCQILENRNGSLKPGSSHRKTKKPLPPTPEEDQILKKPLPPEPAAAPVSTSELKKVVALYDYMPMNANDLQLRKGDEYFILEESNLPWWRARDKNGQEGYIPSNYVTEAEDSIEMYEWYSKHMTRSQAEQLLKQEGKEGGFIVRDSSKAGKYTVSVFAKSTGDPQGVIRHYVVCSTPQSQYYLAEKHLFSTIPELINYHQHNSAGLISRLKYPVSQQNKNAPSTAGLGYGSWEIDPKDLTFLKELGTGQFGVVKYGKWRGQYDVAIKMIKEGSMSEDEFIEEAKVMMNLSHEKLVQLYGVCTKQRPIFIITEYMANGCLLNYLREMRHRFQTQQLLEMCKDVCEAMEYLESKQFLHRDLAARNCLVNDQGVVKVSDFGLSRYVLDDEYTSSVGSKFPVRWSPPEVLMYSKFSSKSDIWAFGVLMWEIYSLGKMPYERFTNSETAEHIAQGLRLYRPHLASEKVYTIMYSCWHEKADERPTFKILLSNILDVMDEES

`C=C[C@@H]1C[C@]1(NC(=O)[C@@H]1C[C@@H](Oc2cc(-c3ccccc3)nc3cc(OC)ccc23)CN1C(=O)[C@H](CCC(=O)C=C(C)C)NC(=O)OC(C)(C)C)C(=O)NS(=O)(=O)C1CC1` [Compound 8, tert-butyl-(S)-1-((2S,4R)-2-((1R,2S)-1-(cyclopropylsulfonylcarbamoyl)-2-vinylcyclopropylcarbamoyl)-4-(7-methoxy-2-phenylquinolin-4-yloxy)pyrrolidin-1-yl)-7-methyl-1,5-dioxooct-6-en-2-ylcarbamate]: the IC50 (in general, the concentration that inhibits the measured activity by half) in experiment [1] is below 0.5 nM. In addition, in experiment [2], the “adduct formation with HCV protease wild type” value is given as “adduct of HCV protease with the compound was formed”.

Turning to `C=CC(=O)Nc1ccc(Sc2nc(Nc3cc(C)n[nH]3)cc(N3CCN(C)CC3)n2)cc1` [Compound 4, N-(4-(4-(3-Methyl-1H-pyrazol-5-ylamino)-6-(4-methylpiperiazin-1-yl)pyrimidin-2ylthio)phenyl)acrylamide], the “covalent modification of Flt3 (modified peptide)” value in experiment [3] is given as “ICDFGLAR with Compound 4 attached”. Also, the IC50 in experiment [4] amounted to 2.2 nM.

With `C=CC(=O)Nc1cccc(Nc2cc(Nc3ccc(Oc4ccccc4)cc3)ncn2)c1` [Compound 10, N-{3-[6-(4-phenoxyphenylamino)-pyrimidin-4-ylamino]phenyl}-2 propenamide], the IC50 in experiment [5] stood at 1.8 nM. Further, at 1 µM the inhibition in experiment [6] was 85%.
